# “And” between values parts separate entries of the source, which are not always exact repeats. Equal entries are not always repeated.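 1) Cells in 96-well plates. 2) Compound, 48 h, 5 concentrations. 3) Linear interpolation between surrounding doses. 4) Unreached endpoint = highest concentration. GI50 = concentration required for 50% inhibition of growth. TGI: total growth inhibition.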
# Experiments:
# Assay in all cases: DTP human tumour cell line panel, 48 h
# [1] = system: A549 NSCLC
# [2] = system: ACHN renal
# [3] = system: BT-549 breast
# [4] = system: HCC-2998 colon
# [5] = system: KM12 colon
# [6] = system: LOX IMVI melanoma
# [7] = system: M14 melanoma
# [8] = system: MOLT-4 leukemia
# [9] = system: SK-MEL-28 melanoma
# [10] = system: TK-10 renal
SMILES,GI50 [1] [µM],TGI [1] [µM],GI50 [2] [µM],TGI [2] [µM],GI50 [3] [µM],TGI [3] [µM],GI50 [4] [µM],TGI [4] [µM],GI50 [5] [µM],TGI [5] [µM],GI50 [6] [µM],TGI [6] [µM],GI50 [7] [µM],TGI [7] [µM],GI50 [8] [µM],TGI [8],GI50 [9] [µM],TGI [9] [µM],GI50 [10] [µM],TGI [10] [µM]
O=C(O)Cn1c2c(c3c1-c1ccccc1C3=O)C(=O)CCC2,> 100,> 100,> 100,> 100,> 100,> 100,> 100,> 100,> 100,> 100,> 100,> 100,> 100,> 100,> 100,> 100 µM,> 100,> 100,> 100,> 100
CC(=O)CC(=O)N1CCSC1=S,–,> 10,–,> 10,–,> 10,–,> 10,–,> 10,–,> 10,–,> 10,–,> 10 µM,–,> 10,–,> 10
Cc1cc(S(=O)(=O)Nc2nc3cscc3c(=O)n2N)c(S)cc1Cl,–,> 100,–,> 100,–,> 100,–,> 100,–,> 100,–,> 100,–,> 100,–,> 100 µM,–,> 100,–,> 100
O=C1Nc2cccc(Cl)c2/C1=C\c1c(-c2ccccc2)nc2n1CCS2,–,49.1,–,32.3,–,76.5,–,46.7,–,52.1,–,36.3,–,45.2,–,39.4 µM,–,44.7,–,45.1
COc1cccc(NC(=O)CC(=O)n2nc(-c3ccccc3)c(N=Nc3ccc(Cl)cc3)c2-c2ccccc2)c1,–,> 85.7,–,> 100,–,58.6,–,64.5,–,> 81.9,–,38.4,–,42.3,–,> 59.3 µM,–,> 100,–,> 100
c1ccc2c(Nc3ncco3)cccc2c1,–,> 10,–,> 10,–,> 10,–,> 10,–,> 10,–,> 10,–,> 10,–,> 10 µM,–,> 10,–,> 10
CC(CCc1nc2ccccc2s1)(c1ccc(O)cc1)c1ccc(O)cc1,–,38.2,–,33.2,–,39.7,–,33.8,–,33.8,–,29.4,–,33.4,–,42.9 µM,–,33.7,–,34.1
CC(OP(=O)(O)O)C(N)C(=O)O (centres undefined),–,> 100,–,> 100,–,> 100,–,> 100,–,> 100,–,> 100,–,> 100,–,> 100 µM,–,> 100,–,> 100
Cn1c2ccc(Cl)cc2c2ccc3c(c21)C(=O)C=CC3=O,–,> 10,–,> 10,–,> 10,–,> 10,–,> 10,–,> 10,–,> 10,–,> 10 µM,–,> 10,–,> 10
O=c1[nH]nc(-c2ccccc2)c2[nH]c3c(c12)Cc1ccccc1-3,–,> 100,–,> 100,–,> 100,–,> 100,–,> 83.5,–,> 100,–,> 100,–,> 25.2 µM,–,> 100,–,> 100
Cc1nc2ccc(Br)cc2c(=O)n1-c1ccc(N)cc1,–,> 100,–,> 100,–,> 100,–,> 100,–,> 100,–,> 100,–,> 100,–,> 100 µM,–,> 100,–,> 100
CCOC(=O)c1c(N2CCCC2)[nH]c(=O)c(C(c2ccc(N(C)C)cc2)c2c(O)c(C(=O)OCC)c(N3CCCC3)[nH]c2=O)c1O,–,> 100,–,> 100,–,> 100,–,> 100,–,> 100,–,> 100,–,> 100,–,> 100 µM,–,> 100,–,> 100
COc1ccc(/C=C2\CCCc3ccccc3C2=O)cc1,–,> 54.4,–,> 100,–,17.3,–,28.2,–,17.6,–,17.4,–,22.2,–,35.3 µM,–,> 100,–,> 96.6
O=c1cc(-c2ccccc2)oc2c1ccc1[nH]c3ccccc3c(=O)c12,–,> 100,–,> 100,–,> 100,–,> 100,–,> 100,–,34.9,–,> 100,–,> 100 µM,–,> 100,–,> 100
Cc1cc(C)c2c(c1)C/C(=C\c1cccc(C)c1C(=O)O)C2=O,–,> 100,–,> 100,–,> 100,–,> 100,–,> 100,–,> 100,–,> 100,–,> 100 µM,–,> 100,–,> 100
O=C1C=CC(=O)c2c(O)c(N3CCOCC3)c(Cl)c(O)c21,–,3.85,–,0.739,–,0.329,–,3.16,–,3.32,–,0.419,–,0.358,–,> 2.13 µM,–,0.786,–,1.79
c1cc2cc3c4c5c(cc6ccc7cc8cc9c%10c8c8c7c6c5c8c5c%10c(c1C9N1CCOCCOCCOCCOCCOCC1)c2c45)C3 (centres undefined),–,> 100,–,> 100,–,> 100,–,> 100,–,> 100,–,> 100,–,> 100,–,> 100 µM,–,> 100,–,> 100
CCOc1ccc2nc3nc(=O)[nH]c(C)c3c(NC(C)(CO)CO)c2c1,–,> 100,–,> 100,–,> 100,–,> 100,–,> 100,–,> 100,–,> 100,–,> 100 µM,–,> 100,–,> 100
O=C1C=CC2(O[C@H](C3CCCCC3)[C@@H](C3CCCCC3)O2)C(SC(=O)c2ccccc2)C1 (some centres undefined),–,45.8,–,6.43,–,8.28,–,5.52,–,18.3,–,5.92,–,7.9,–,3.77 µM,–,3.15,–,5.62
[N-]=[N+]=Nc1nc2ccccc2c(N=[N+]=[N-])c1Cl,–,> 100,–,> 100,–,89.6,–,> 100,–,> 100,–,> 100,–,> 100,–,> 100 µM,–,> 100,–,> 100
O=C1C(N2CCN(CCOCCO)CC2)=C(Cl)C(=O)c2ncccc21,> 100,> 100,–,33.4,–,8.33,> 100,> 100,> 100,> 100,–,26.7,–,39.2,9.63,5.15 µM and 31.4 µM,–,43.7,–,48.5
Cc1nc(C)c(N2CCN(CN)CC2)c(=O)[nH]1,–,> 100,–,> 100,–,> 100,–,> 100,–,> 100,–,> 100,–,> 100,–,> 100 µM,–,> 100,–,> 100
Cc1cc2c(c(C(=O)NCC(=O)O)c1)Oc1c(cc(C)cc1C(=O)NCC(=O)O)S2,–,> 100,–,> 100,–,> 100,–,> 100,–,> 100,–,> 100,–,> 100,–,> 100 µM,–,> 100,–,> 100
O=CC(O)C(O)C(O)C(O)COC(=O)NCCCCC(=O)C(F)(F)C(F)(F)C(F)(F)C(F)(F)C(F)(F)C(F)(F)C(F)(F)F (centres undefined),–,> 100,–,> 100,–,33.9,–,60.4,–,46.4,–,30.1,–,60.2,–,31.1 µM,–,> 100,–,> 100
Cc1ccc(S(=O)(=O)OCCC2CN(C(=O)OCc3ccccc3)C(C)(C)O2)cc1 (centres undefined),–,> 100,–,64.9,–,5.97,–,72.7,–,12.4,–,> 100,–,38.1,–,47.8 µM,–,82.1,–,> 100
NC1CCCCC1NCCNC1CCCCC1N (centres undefined),–,87.6,–,> 100,–,> 100,–,81.7,–,> 100,–,> 100,–,> 100,–,> 100 µM,–,> 100,–,> 100
C=CC(C)(C)/C=C/c1ccc(O)cc1,–,> 100,–,> 100,–,> 100,–,79.9,–,> 100,–,45.6,–,> 100,–,> 100 µM,–,> 100,–,> 100

# Source: PubChem BioAssay (NCI)
